# Source: patent US9409892B2, “4-hydroxy-isoquinoline compounds as HIF hydroxylase inhibitors” (FIBROGEN, INC., priority 2012, dated 2016)
# Experiments:
# [1] = molecular target: PHD1 (EGLN2) (Homo sapiens (Human), UniProt Q96KS0); assay: HIF-PH assay (14CO2 capture), PHD1 enzyme inhibition; type: biochemical; settings: for IC50: individual measurement, read-out: IC50 (μM) PHD1
# [2] = molecular target: PHD2 (EGLN1) (Homo sapiens (Human), UniProt Q9GZT9); assay: HIF-PH assay (14CO2 capture), PHD2 enzyme inhibition; type: biochemical; settings: Table 1; individual measurement; read-out: IC50 (μM) PHD2
# [3] = Table 1, ratio of the IC50 of the compound for each enzyme
# Chain of PHD2 (EGLN1) (Q9GZT9 whole entry): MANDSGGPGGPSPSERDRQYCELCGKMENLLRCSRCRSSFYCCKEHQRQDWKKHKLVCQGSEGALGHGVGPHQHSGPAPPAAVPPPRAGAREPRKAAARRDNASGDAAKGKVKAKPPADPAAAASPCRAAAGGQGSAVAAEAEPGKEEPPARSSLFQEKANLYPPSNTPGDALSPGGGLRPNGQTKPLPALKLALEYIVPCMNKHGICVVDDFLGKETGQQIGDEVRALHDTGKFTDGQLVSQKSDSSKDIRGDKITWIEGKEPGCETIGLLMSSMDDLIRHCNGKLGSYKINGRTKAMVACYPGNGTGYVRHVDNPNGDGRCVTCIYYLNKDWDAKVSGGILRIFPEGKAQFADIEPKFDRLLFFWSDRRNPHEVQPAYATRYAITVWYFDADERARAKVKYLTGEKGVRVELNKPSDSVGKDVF
# Chain of PHD1 (EGLN2) (Q96KS0 whole entry): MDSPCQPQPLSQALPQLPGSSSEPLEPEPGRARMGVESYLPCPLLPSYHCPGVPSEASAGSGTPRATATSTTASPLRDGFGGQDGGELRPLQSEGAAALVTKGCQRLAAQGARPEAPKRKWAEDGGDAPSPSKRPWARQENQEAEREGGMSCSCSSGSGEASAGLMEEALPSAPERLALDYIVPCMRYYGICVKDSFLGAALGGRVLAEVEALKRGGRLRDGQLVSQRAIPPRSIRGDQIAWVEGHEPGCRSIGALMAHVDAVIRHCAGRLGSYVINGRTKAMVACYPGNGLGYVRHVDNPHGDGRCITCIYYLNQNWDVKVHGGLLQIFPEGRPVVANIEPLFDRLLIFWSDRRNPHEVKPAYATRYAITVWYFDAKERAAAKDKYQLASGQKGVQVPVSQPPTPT
IC50 ([1]; Table 1) [µM],"PHD2/PHD1 [1, 3]",IC50 [2] [µM],"PHD2/PHD1 ([1]; Table 2 comparative data, IC50 PHD2/IC50 PHD1)",SMILES
3.76,9.9,37.3,–,"N#Cc1nc(C(=O)NCC2(C(=O)O)CCS(=O)(=O)CC2)c(O)c2ccc(Oc3ccccc3)cc12 [Compound 29, 4-{[(1-Cyano-4-hydroxy-7-phenoxy-isoquinoline-3-carbonyl)-amino]-methyl}-1,1-dioxo-hexahydro-1λ^6-thiopyran-4-carboxylic acid]"
2.58,12,30.5,–,"CC(C)(CNC(=O)c1nc(C#N)c2cc(OCc3ccccc3)ccc2c1O)C(=O)O [Compound 153, 3-[(7-Benzyloxy-1-cyano-4-hydroxy-isoquinoline-3-carbonyl)-amino]-2,2-dimethyl-propionic acid]"
3.56,8,27.5,–,"N#Cc1nc(C(=O)NC[C@H](NC(=O)OCc2ccccc2)C(=O)O)c(O)c2ccc(Oc3ccccc3)cc12 [Compound 87, 2-(S)-Benzyloxycarbonylamino-3-[(1-cyano-4-hydroxy-7-phenoxy-isoquinoline-3-carbonyl)-amino]-propionic acid]"
6.67,24,159,–,"N#Cc1nc(C(=O)N[C@@H](CO)CC(=O)O)c(O)c2ccc(Oc3ccccc3)cc12 [Compound 37, (R)-3-(1-Cyano-4-hydroxy-7-phenoxyisoquinoline-3-carboxamido)-4-hydroxybutanoic acid]"
29,7,200,–,"Cc1nc(C(=O)NCCC(=O)O)c(O)c2ccc(Oc3ccccc3)cc12 [Compound 108, 3-[(4-Hydroxy-1-methyl-7-phenoxy-isoquinoline-3-carbonyl)-amino]-propionic acid]"
0.34,6,2.11,–,"CC(C)(CCNC(=O)c1nc(C#N)c2cc(Oc3ccccc3)ccc2c1O)C(=O)O [Compound 84, 4-[(1-Cyano-4-hydroxy-7-phenoxy-isoquinoline-3-carbonyl)-amino]-2,2-dimethyl-butyric acid]"
0.13,6.5,0.86,–,"CC(C)(CNC(=O)c1nc(C#N)c2cc(Oc3ccc4ccccc4c3)ccc2c1O)C(=O)O [Compound 59, 3{-[1-Cyano-4-hydroxy-7-(naphthalen-2-yloxy)-isoquinoline-3-carbonyl]-amino}-2,2-dimethyl-propionic acid]"
4.43,7,29.9,–,"CCCC(CCC)(CNC(=O)c1nc(C#N)c2cc(Oc3ccccc3)ccc2c1O)C(=O)O [Compound 18, 2-{[(1-Cyano-4-hydroxy-7-phenoxy-isoquinoline-3-carbonyl)-amino]-methyl}-2-propyl-pentanoic acid]"
4.08,6,24.6,–,"N#Cc1nc(C(=O)N[C@H](CC(=O)O)c2cccnc2)c(O)c2ccc(Oc3ccccc3)cc12 [Compound 176, 3-(R)-[(1-Cyano-4-hydroxy-7-phenoxy-isoquinoline-3-carbonyl)-amino]-3-pyridin-3-yl-propionic acid]"
1.73,13,22.8,–,"N#Cc1nc(C(=O)NCC2(C(=O)O)CCCC2)c(O)c2ccc(Oc3ccccc3)cc12 [Compound 19, 1-{[(1-Cyano-4-hydroxy-7-phenoxy-isoquinoline-3-carbonyl)-amino]-methyl}-cyclopentanecarboxylic acid]"
0.16,18,2.86,–,"N#Cc1nc(C(=O)NCC(O)C(=O)O)c(O)c2ccc(Oc3ccccc3)cc12 (stereo not shown) [Compound 76, 3-[(1-Cyano-4-hydroxy-7-phenoxy-isoquinoline-3-carbonyl)-amino]-2-hydroxy-propionic acid]"
0.55,17,9.56,–,"CC(C)(CNC(=O)c1nc(C#N)c2cc(Oc3ccccc3F)ccc2c1O)C(=O)O [Compound 41, 3{-[1-Cyano-7-(2-fluoro-phenoxy)-4-hydroxy-isoquinoline-3-carbonyl]-amino}-2,2-dimethyl-propionic acid]"

# Second part, the molecule before the results:
SMILES,IC50 ([1]; Table 1) [µM],"PHD2/PHD1 [1, 3]",IC50 [2] [µM],"PHD2/PHD1 ([1]; Table 2 comparative data, IC50 PHD2/IC50 PHD1)"
"O=C(O)CCCNC(=O)c1ncc2cc(Sc3ccccc3)ccc2c1O [Compound 115, 4-[(4-Hydroxy-7-phenylsulfanyl-isoquinoline-3-carbonyl)-amino]-butyric acid]",1.41,11,14.8,–
"O=C(Nc1ccccc1)Nc1ccc2c(O)c(C(=O)NC[C@H](O)C(=O)O)ncc2c1 [Compound 117, (S)-2-Hydroxy-3-{[4-hydroxy-7-(3-phenyl-ureido)-isoquinoline-3-carbonyl]-amino}-propionic acid]",4.66,11,51.4,–
"O=C(O)CCNC(=O)c1ncc2cc(NC(=O)c3ccc(F)cc3)ccc2c1O [Compound 118, 3-{[7-(4-Fluoro-benzoylamino)-4-hydroxy-isoquinoline-3-carbonyl]-amino}-propionic acid]",6.45,18,113,–
"O=C(O)CCNC(=O)c1ncc2cc(Oc3cccnc3)ccc2c1O [Compound 24, 3-{[4-Hydroxy-7-(pyridin-3-yloxy)-isoquinoline-3-carbonyl]-amino}-propionic acid]",2.31,10,23.3,10
"N#Cc1nc(C(=O)NCCC(=O)O)c(O)c2ccc(Oc3ccc(F)cc3Cl)cc12 [Compound 97, 3-{[7-(2-Chloro-4-fluoro-phenoxy)-1-cyano-4-hydroxy-isoquinoline-3-carbonyl]-amino}-propionic acid]",1.3,6,7.43,–
"N#Cc1nc(C(=O)NCC2(C(=O)O)CCC2)c(O)c2ccc(S(=O)(=O)C3CCCCC3)cc12 [Compound 161, 1-{[(1-Cyano-7-cyclohexanesulfonyl-4-hydroxy-isoquinoline-3-carbonyl)-amino]-methyl}-cyclobutanecarboxylic acid]",19.8,10,200,–
"Cc1cccc(C)c1Oc1ccc2c(C#N)nc(C(=O)NCCCCC(=O)O)c(O)c2c1 [Compound 111, 5-{[1-Cyano-6-(2,6-dimethyl-phenoxy)-4-hydroxy-isoquinoline-3-carbonyl]-amino}-pentanoic acid]",10.5,11,112,–
"CC(C)(CNC(=O)c1c(O)c2ccc(Oc3ccccc3)cc2c(C#N)[n+]1[O-])C(=O)O [Compound 157, 3-(2-Carboxy-2-methylpropylcarbamoyl)-1-cyano-4-hydroxy-7-phenoxyisoquinoline 2-oxide]",13.6,15,200,–
"COc1ccc(Oc2ccc3c(O)c(C(=O)NC[C@H](O)C(=O)O)ncc3c2)cc1 [Compound 103, 2-(S)-Hydroxy-3-{[4-hydroxy-7-(4-methoxy-phenoxy)-isoquinoline-3-carbonyl]-amino}-propionic acid]",0.79,6,4.78,–
"Cn1nc(C(F)(F)F)cc1-c1nc(C(=O)NCC(C)(C)C(=O)O)c(O)c2ccc(Oc3ccccc3)cc12 [Compound 151, 3-{[4-Hydroxy-1-(2-methyl-5-trilluoromethyl-2H-pyrazol-3-yl)-7-phenoxy-isoquinoline-3-carbonyl]-amino}-2,2-dimethyl-propionic acid]",12.8,9,111,–
"COc1ccc(Oc2ccc3c(O)c(C(=O)NC(C)(C)CC(=O)O)nc(C#N)c3c2)cc1 [Compound 21, 3{-[1-Cyano-4-hydroxy-7-(4-methoxy-phenoxy)-isoquinoline-3-carbonyl]-amino}-3-methyl-butyric acid]",0.24,39,9.4,–
"COc1ccc(CNc2ccc3c(O)c(C(=O)NCCCCC(=O)O)ncc3c2)cc1 [Compound 125, 5-{[4-Hydroxy-7-(4-methoxy-benzylamino)-isoquinoline-3-carbonyl]-amino}-pentanoic acid]",7.92,20,158,–
"N#Cc1nc(C(=O)NCC(C(=O)O)C2CC2)c(O)c2ccc(Oc3c(F)cccc3F)cc12 (stereo not shown) [Compound 180, 3{-[1-Cyano-7-(2,6-difluoro-phenoxy)-4-hydroxy-isoquinoline-3-carbonyl]-amino}-2-cyclopropyl-propionic acid]",4.57,6,28.9,–
"CC(C)(CNC(=O)c1nc(C#N)c2cc(Sc3ccccc3)ccc2c1O)C(=O)O [Compound 121, 3-[(1-Cyano-4-hydroxy-7-phenylsulfanyl-isoquinoline-3-carbonyl)-amino]-2,2-dimethyl-propionic acid]",0.84,10,8.18,–
"CC(C)(CNC(=O)c1nc(C#N)c2cc(CCc3ccccc3)ccc2c1O)C(=O)O [Compound 122, 3-[(1-Cyano-4-hydroxy-7-phenethyl-isoquinoline-3-carbonyl)-amino]-2,2-dimethyl-propionic acid]",2.57,11,29.3,–
"O=C(O)CCCCNC(=O)c1nc(-c2cncc(F)c2)c2cc(Oc3ccccc3)ccc2c1O [Compound 147, 5-{[1-(5-Fluoro-pyridin-3-yl)-4-hydroxy-7-phenoxy-isoquinoline-3-carbonyl]-amino}-pentanoic acid]",5.09,15,77,–
"O=C(O)CCCCNC(=O)c1ncc2cc(Sc3ccccc3)ccc2c1O [Compound 114, 5-[(4-Hydroxy-7-phenylsulfanyl-isoquinoline-3-carbonyl)-amino]-pentanoic acid]",13.5,6,86.6,–
"O=C(O)CCCNC(=O)c1ncc2cc(Oc3ccccc3)ccc2c1O [Compound 4, 4-[(4-Hydroxy-7-phenoxy-isoquinoline-3-carbonyl)-amino]-butyric acid]",1.17,6,7,–
